Assay results published in patent US10501492B2, “Antibiotic compounds” (priority 2009, dated 2019).
Read-outs that look alike come from different tables or passages of the source.

Test system: M. tuberculosis Clinical isolate: S, H, R and E resistant
Type: cell-based, Mycobacterium tuberculosis
Details: 72 hours

C=C(NC(=O)c1csc(C2=NC3c4csc(n4)C4NC(=O)c5csc(n5)C(C(C)(O)C(C)O)NC(=O)C5CSC(=N5)/C(=C\C)NC(=O)C(C(C)O)NC(=O)c5csc(n5)C3(CC2)NC(=O)C(C)NC(=O)C(=C)NC(=O)C(C)NC(=O)C(C(C)C)NC2C=Cc3c(C(C)O)cc(nc3C2O)C(=O)OC4C)n1)C(=O)NC(C)C(N)=O (stereo not drawn) [Compound of Formula I(b)]
% reduction in RLU (0.5 μg/mL): 5.67% | % reduction in RLU (5 μg/mL): 70.9% | % reduction in RLU (10 μg/mL): 83.74%

C=C(NC(=O)C(=C)NC(=O)c1csc(C2=NC3c4csc(n4)C4NC(=O)c5csc(n5)C(C(C)(O)C(C)O)NC(=O)C5CSC(=N5)/C(=C\C)NC(=O)C(C(C)O)NC(=O)c5csc(n5)C3(CC2)NC(=O)C(C)NC(=O)C(=C)NC(=O)C(C)NC(=O)C(C(C)C)NC2C=Cc3c(C(C)O)cc(nc3C2O)C(=O)OC4C)n1)C(N)=O (stereo not drawn) [Compound of Formula I(a)]
% reduction in RLU (0.5 μg/mL): 20.88% | % reduction in RLU (5 μg/mL): 78.11% | % reduction in RLU (10 μg/mL): 88.42%
